Assay: xn = mol fraction of the nth substance listed
Details: 101 kPa, Liquid, Vibrating tube method

CC(=O)c1ccccc1 [acetophenone] + Cc1cc(C)cc(C)c1
mass density [kg/m3]
Details	298.15 K	328.15 K
x2 = 0	1023.13	996.99
x2 = 0.09015	1006.63	980.65
x2 = 0.185	989.75	963.9
x2 = 0.2674	975.43	949.71
x2 = 0.358	960.07	934.46
x2 = 0.4569	943.72	918.28
x2 = 0.5358	930.98	905.65
x2 = 0.6409	914.41	889.25
x2 = 0.7322	900.4	875.38
x2 = 0.836	884.84	860
x2 = 0.8961	876.03	851.31

c1ccccc1 [benzene] + CC(=O)c1ccccc1
x1 = 1
Details	mass density [kg/m3]
298.15 K	873.64
328.15 K	841.51

Cc1cccc(C)c1 [1,3-dimethylbenzene] + CC(=O)c1ccccc1
x1 = 1
Details	mass density [kg/m3]
298.15 K	859.88
328.15 K	834.12

CC(=O)c1ccccc1 [acetophenone] + c1ccccc1
mass density [kg/m3]
Details	298.15 K	328.15 K
x2 = 0	1023.11	997
x2 = 0.1057	1011.02	984.62
x2 = 0.186	1001.34	974.7
x2 = 0.2855	988.94	961.91
x2 = 0.3792	976.58	949.15
x2 = 0.4626	964.98	937.16
x2 = 0.5484	952.49	924.19
x2 = 0.6248	940.71	911.99
x2 = 0.7289	923.84	894.3
x2 = 0.8003	911.56	881.44
x2 = 0.8953	894.23	863.18

CC(=O)c1ccccc1 [acetophenone] + Cc1ccccc1
mass density [kg/m3]
Details	298.15 K	328.15 K
x2 = 0	1023.12	997.01
x2 = 0.1016	1008.8	982.57
x2 = 0.1982	994.83	968.48
x2 = 0.257	986.17	959.73
x2 = 0.3576	971	944.41
x2 = 0.453	956.2	929.46
x2 = 0.5369	942.81	915.9
x2 = 0.6366	926.48	899.39
x2 = 0.7154	913.19	885.89
x2 = 0.8198	895.09	867.55
x2 = 0.9019	880.36	852.62

Cc1cc(C)cc(C)c1 [1,3,5-trimethylbenzene] + CC(=O)c1ccccc1
x1 = 1
Details	mass density [kg/m3]
298.15 K	861.13
328.15 K	836.63

CC(=O)c1ccccc1 [acetophenone] + Cc1cccc(C)c1
mass density [kg/m3]
Details	298.15 K	328.15 K
x2 = 0	1023.12	996.98
x2 = 0.09263	1007.97	981.88
x2 = 0.1807	993.62	967.52
x2 = 0.2662	979.65	953.61
x2 = 0.3566	964.94	938.89
x2 = 0.4525	949.31	923.26
x2 = 0.538	935.34	909.32
x2 = 0.6252	921.13	895.13
x2 = 0.7339	903.38	877.43
x2 = 0.8479	884.76	858.85
x2 = 0.8943	877.15	851.29

Cc1ccccc1 [toluene] + CC(=O)c1ccccc1
x1 = 1
Details	mass density [kg/m3]
298.15 K	862.27
328.15 K	834.26

Source: the NIST ThermoML archive (doi:10.1016/j.jct.2004.11.023)
